Patent EP4647433A1, “SHP2 INHIBITOR AND USES THEREOF” (Kanaph Therapeutics Inc., priority 2023, dated 2024)
Where two headings read alike, the source gives them in different places.

Tests used:
SHP2 = target: T1, SHP2 (Homo sapiens, UniProt Q06124); assay: Phosphatase assay (PTPase assay, DiFMUP substrate); assay type: biochemical
T1 construct: SHP2 (full length, diluted to 100 pM final concentration in reaction buffer, BPS bioscience, US); purchased BPS bioscience, US
T1 sequence (Q06124 1-593): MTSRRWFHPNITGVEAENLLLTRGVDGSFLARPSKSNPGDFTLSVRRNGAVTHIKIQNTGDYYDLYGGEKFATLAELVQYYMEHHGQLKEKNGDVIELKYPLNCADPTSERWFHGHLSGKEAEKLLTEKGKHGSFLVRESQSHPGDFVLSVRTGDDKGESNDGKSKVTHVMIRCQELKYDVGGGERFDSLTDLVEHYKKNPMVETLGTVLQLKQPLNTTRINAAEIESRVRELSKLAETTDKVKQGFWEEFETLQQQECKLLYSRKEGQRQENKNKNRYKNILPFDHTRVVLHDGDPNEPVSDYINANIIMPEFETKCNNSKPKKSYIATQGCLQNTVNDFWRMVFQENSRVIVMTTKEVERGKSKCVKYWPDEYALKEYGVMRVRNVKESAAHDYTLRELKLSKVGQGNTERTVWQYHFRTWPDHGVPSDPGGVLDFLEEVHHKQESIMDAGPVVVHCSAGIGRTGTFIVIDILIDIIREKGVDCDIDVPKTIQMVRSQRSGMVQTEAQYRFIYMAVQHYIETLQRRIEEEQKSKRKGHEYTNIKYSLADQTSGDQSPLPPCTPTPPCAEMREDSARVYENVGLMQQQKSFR
Method: IC50 values were measured using 6,8-difluoro-4-methylumbelliferyl phosphate (DiFMUP) as a substrate. The reaction was performed in a 384-well plate, and fluorescence measurement values were obtained using an EnVision plate reader from PerkinElmer.
SHP2 (full length, diluted to 100 pM final concentration in reaction buffer, BPS bioscience, US) was incubated with the SHP2 activating peptide in reaction buffer (60 mM HEPES (pH 7.2), 75 mM NaCl, 75 mM KCl, 1 mM EDTA, 5 mM DTT, 0.05% P-20) for 30 minutes to activate SHP2. After activation, DMSO [1% (V/V) or the compound according to the Examples (concentration ranging from 0.6 nM to 10 µM)] was added. As a positive control group, the selective SHP2 inhibitors SHP099 (6-(4-amino-4-methylpiperidin-1-yl)-3-(2,3-dichlorophenyl)pyrazin-2-amine, FOCUS bioscience, Austrailia; concentration ranging from 0.6 nM to 10 µM) and TNO155 ((3S,4S)-8-(6-amino-5-((2-amino-3-chloropyridin-4-yl)thio)pyrazin-2-yl)-3-methyl-2-oxa-8-azaspiro[4.5]decan-4-amine, Chemietek, US; concentration ranging from 0.6 nM to 10 µM) were used. [drawing 184]
DiFMUP (80 µM) was added to the reaction and incubated for a total of 2 hours to allow for the reaction to proceed. Thereafter, fluorescence (340 nm excitation, 450 nm emission) values were measured. IC50 values were obtained using Graphad's Prism from the measured values depending on the concentration.
In the phosphatase assay (PTPase assay), when an IC50 value was 100 nM or more, + was indicated, when an IC50 value was 3 nM or more and less than 100 nM, ++ was indicated, and when an IC50 value was less than 3 nM, +++ was indicated.

phospho-ERK = phospho-ERK assay (AlphaLisa) in H358 cells; assay type: cell-based; details: Homo sapiens, NCI-H358, 1.5 hours incubation, read-out: pERK assay (IC50)
Method: H358 [20,000 cell/well] was contained in 40 µL of the cell culture solution (RPMI, 10% FBS, penicillin, streptomycin) and placed on a 384-well plate. After 24 hours, the serially diluted compound according to the Examples (concentration of minimum 0.13 nM, maximum 10 µM) was contained in 10 µL of the cell culture solution, put into wells containing cells, and incubated in a cell incubator for 1.5 hours. As a positive control group, the selective SHP2 inhibitor, TNO155 (Chemietek, US; concentration ranging from 0.13 nM to 10 µM) was used.
Thereafter, phospho-ERK was labeled using an AlphaLisa system from PerkinElmer according to the manufacturer's instructions, and then fluorescence (680 nm excitation wavelength, 615 nm emission wavelength) values were measured using a Varioskan equipment from Thermo. IC50 values were obtained using Graphad's Prism from the measured values depending on the concentration.
Intracellular SHP2 activity can be confirmed by measuring the degree of phosphorylation of ERK (extracellular signal regulated kinase), which represents Ras/Raf/ERK, a downstream signal pathway of SHP2. Inhibition of ERK phosphorylation by SHP2 inhibitors was confirmed through phospho-ERK analysis, which confirmed that the SHP2 inhibitors of the present disclosure have excellent activity in inhibiting ERK phosphorylation mediated by SHP2.

H358 cells = assay: Cell viability (3D spheroid, 3D CellTiter-Glo); assay type: cell-based; details: Homo sapiens, NCI-H358, 120 h; H358 spheroids, 5 days treatment
Method: Human non-small cell lung cancer cell line H358 cells were purchased from the Korean Cell Line Bank. Cancer cell lines were cultured in the recommended RPMI-1640 medium supplemented with 10% fetal bovine serum (FBS) and 1% penicillin/streptomycin. Monolayer-cultured cancer cell lines were detached by treatment with Trypsin/EDTA, and 100 µL of cell suspension containing 4 x 10^3 cells was each dispensed into SPL3D™ Cell Floater, 96-well round plate, through cell line counting. After culturing for 72 hours to form spheroid, the cells were individually treated with the compounds according to the Examples, which had been serially diluted (minimum 1.5 nM, maximum 10 µM in concentration), and then cultured in a cell incubator for 5 days. To analyze cell viability, the cells were treated with 50 uL of 3D CellTiter-Glo, stirred for 5 minutes at 500 rpm in a plate shaker from Thermo Fisher Scientific, and incubated for 25 minutes at room temperature. Then, the luminescent values were measured using a Varioskan equipment from Thermo Fisher Scientific. IC50 values were obtained using GraphPad's Prism from the measured values depending on the concentration.
In the cell viability assay, when an IC50 value was 50 nM or more, + was indicated, when an IC50 value was 10 nM or more and less than 50 nM, ++ was indicated, and when an IC50 value was less than 10 nM, +++ was indicated.

[1] = Brain-plasma Pharmacokinetics; details: male, CD-1 (ICR), mouse, brain/plasma, 20 mg/kg
Method: Nine male CD-1 mice (ICR mouse) aged 6 to 9 weeks were treated with the compounds according to the Examples at a concentration of 20 mg/kg. 0.025 mL of blood and brain tissue were collected at 1 hour, 8 hours, and 24 hours post-treatment, respectively. The collected blood was placed in an EDTA-K2 tube, centrifuged at 4°C at 3,200 x g for 10 minutes, and the supernatant plasma was collected. The brain tissue samples were collected immediately after euthanizing the CD-1 mice after blood collection and performing cardiac perfusion with cold saline. After collection, the brain tissues were washed with cold saline, wiped and dried, weighed, and homogenized using a homogenization buffer (15 mM PBS (pH 7.4): MeOH = 2:1) at a ratio of 1:3 (1 g of tissue to 3 mL of buffer, dilution ratio 4). Plasma and homogenized brain tissue samples were each transferred to a polypropylene microcentrifuge tube and stored at -60°C or lower. The concentration of compounds distributed in plasma and brain tissue was analyzed using LC-MS/MS, and the distribution in brain tissue compared to plasma was calculated as follows. Brain-to-plasma ratio = AUC(0-t) brain tissue /AUC(0-t) plasma [formula]
In the Brain-plasma Pharmacokinetics assay, when a brain-to-plasma ratio value was 0.05 or more and less than 0.1, + was indicated, when a brain-to-plasma ratio value was 0.1 or more and less than 0.25, ++ was indicated, and when a brain-to-plasma ratio value was more than 0.25, +++ was indicated.

[2] = full length SHP2 100 pM activated with SHP2 activating peptide, DiFMUP 80 µM, 2 hours; read-out: PTPase assay (IC50)

| SMILES | IC50 (SHP2; [2]) [nM] | IC50 (phospho-ERK) [nM] | IC50 (SHP2; read-out: PTPase assay (IC50); full length SHP2 100 pM activated with SHP2 activating peptide, DiFMUP 80 µM, 2 hours) [nM] | IC50 (H358 cells) [nM] | Kp at 24 h [1] |
| --- | --- | --- | --- | --- | --- |
| N[C@@H]1c2scnc2CC12CCN(c1cnc(Sc3ccc4nc[nH]c(=O)c4c3Cl)cn1)CC2 [Example 1, (S)-6-((5-(6-amino-4,6-dihydrospiro[cyclopenta[d]thiazole-5,4'-piperidin]-1'-yl)pyrazin-2-yl)thio)-5-chloroquinazolin-4(3H)-one] | < 3 | < 45 |  |  |  |
| Cn1cnc2ccc(Sc3cnc(N4CCC5(CC4)Cc4ncsc4[C@H]5N)cn3)c(Cl)c2c1=O [Example 2, (S)-6-((5-(6-amino-4,6-dihydrospiro[cyclopenta[d]thiazole-5,4'-piperidin]-1'-yl)pyrazin-2-yl)thio)-5-chloro-3-methylquinazolin-4(3H)-one] |  | < 45 | < 3 | < 10 |  |
| CCn1cnc2ccc(Sc3cnc(N4CCC5(CC4)Cc4ncsc4[C@H]5N)cn3)c(Cl)c2c1=O [Example 3, (S)-6-((5-(6-amino-4,6-dihydrospiro[cyclopenta[d]thiazole-5,4'-piperidin]-1'-yl)pyrazin-2-yl)thio)-5-chloro-3-ethylquinazolin-4(3H)-one] | < 3 | < 45 |  | < 10 |  |
| CC(C)n1cnc2ccc(Sc3cnc(N4CCC5(CC4)Cc4ncsc4[C@H]5N)cn3)c(Cl)c2c1=O [Example 4, (S)-6-((5-(6-amino-4,6-dihydrospiro[cyclopenta[d]thiazole-5,4'-piperidin]-1'-yl)pyrazin-2-yl)thio)-5-chloro-3-isopropylquinazolin-4(3H)-one] | < 3 | < 45 |  | < 10 |  |
| COCCn1cnc2ccc(Sc3ncc(N4CCC5(CC4)Cc4ccccc4[C@H]5N)nc3N)c(Cl)c2c1=O [Example 8, (S)-6-((3-amino-5-(1-amino-1,3-dihydrospiro[indene-2,4'-piperidin]-1'-yl)pyrazin-2-yl)thio)-5-chloro-3-(2-methoxyethyl)quinazolin-4(3H)-one] | < 3 | < 45 |  |  |  |
| COC(C)Cn1cnc2ccc(Sc3ncc(N4CCC5(CC4)Cc4ccccc4[C@H]5N)nc3N)c(Cl)c2c1=O (stereo partly drawn) [Example 9, 6-((3-amino-5-((S)-1-amino-1,3-dihydrospiro[indene-2,4'-piperidin]-1'-yl)pyrazin-2-yl)thio)-5-chloro-3-(2-methoxypropyl)quinazolin-4(3H)-one] | < 3 | < 45 |  |  |  |
| Cn1cnc2ccc(Sc3ncc(N4CCC5(CC4)Cc4ccccc4[C@H]5N)nc3N)c(Cl)c2c1=O [Example 10] | < 3 | < 45 |  |  |  |
| C[C@@H]1OCC2(CCN(c3cnc(Sc4ccc5ccn(C)c(=O)c5c4Cl)cn3)CC2)[C@@H]1N [Example 15, 7-((5-((3S,4S)-4-amino-3-methyl-2-oxa-8-azaspiro[4.5]decan-8-yl)pyrazin-2-yl)thio)-8-chloro-2-methylisoquinolin-1(2H)-one] | < 3 |  |  | 10 to 50 | 0.05 to 0.1 |
| COC(C)(C)C(F)n1cnc2ccc(Sc3cnc(N4CCC5(CC4)CO[C@@H](C)[C@H]5N)cn3)c(Cl)c2c1=O (stereo partly drawn) [Example 28, 6-((5-((3S,4S)-4-amino-3-methyl-2-oxa-8-azaspiro[4.5]decan-8-yl)pyrazin-2-yl)thio)-5-chloro-3-(1-fluoro-2-methoxy-2-methylpropyl)quinazolin-4(3H)-one] | < 3 | 45 to 1500 |  | 10 to 50 |  |
| N[C@@H]1c2ccccc2CC12CCN(c1cnc(Sc3ccc4ncn(-c5cccnc5)c(=O)c4c3Cl)cn1)CC2 [Example 31, (S)-6-((5-(1-amino-1,3-dihydrospiro[indene-2,4'-piperidin]-1'-yl)pyrazin-2-yl)thio)-5-chloro-3-(pyridin-3-yl)quinazolin-4(3H)-one] |  | 45 to 1500 |  | < 10 | 0.1 to 0.25 |
| COC(C)(C)Cn1cnc2ccc(Sc3cnc(N4CCC5(CC4)Cc4ccccc4[C@H]5N)nn3)c(Cl)c2c1=O [Example 34, (S)-6-((3-(1-amino-1,3-dihydrospiro[indene-2,4'-piperidin]-1'-yl)-1,2,4-triazin-6-yl)thio)-5-chloro-3-(2-methoxy-2-methylpropyl)quinazolin-4(3H)-one] | < 3 |  |  | < 10 | 0.1 to 0.25 |
| COC(C)Cn1c(C)nc2ccc(Sc3cnc(N4CCC5(CC4)CO[C@@H](C)[C@H]5N)cn3)c(Cl)c2c1=O (stereo partly drawn) [Example 39, 6-((5-((3S,4S)-4-amino-3-methyl-2-oxa-8-azaspiro[4.5]decan-8-yl)pyrazin-2-yl)thio)-5-chloro-3-(2-methoxypropyl)-2-methylquinazolin-4(3H)-one] | < 3 | 45 to 1500 |  | 10 to 50 |  |
| COC(C)Cn1ccc2ccc(Sc3cnc(N4CCC5(CC4)Cc4ccccc4[C@H]5N)cn3)c(Cl)c2c1=O (stereo partly drawn) [Example 42, 7-((5-((S)-1-amino-1,3-dihydrospiro[indene-2,4'-piperidin]-1'-yl)pyrazin-2-yl)thio)-8-chloro-2-(2-methoxypropyl)isoquinolin-1(2H)-one] | < 3 |  |  | < 10 |  |
| CC(C)n1ccc2ccc(Sc3cnc(N4CCC5(CC4)CO[C@@H](C)[C@H]5N)cn3)c(Cl)c2c1=O [Example 46, 7-((5-((3S,4S)-4-amino-3-methyl-2-oxa-8-azaspiro[4.5]decan-8-yl)pyrazin-2-yl)thio)-8-chloro-2-isopropylisoquinolin-1(2H)-one] | < 3 |  |  | 10 to 50 |  |
| Cn1cnc2ccc(Sc3cnc(N4CCC5(CC4)Oc4ccccc4[C@H]5N)cn3)c(Cl)c2c1=O [Example 51, (R)-6-((5-(3-amino-3H-spiro[benzofuran-2,4'-piperidin]-1'-yl)pyrazin-2-yl)thio)-5-chloro-3-methylquinazolin-4(3H)-one] |  |  |  |  | > 0.25 |
| N[C@@H]1c2ccccc2OC12CCN(c1cnc(Sc3ccc4ncn(-c5ccccc5)c(=O)c4c3Cl)cn1)CC2 [Example 52, (R)-6-((5-(3-amino-3H-spiro[benzofuran-2,4'-piperidin]-1'-yl)pyrazin-2-yl)thio)-5-chloro-3-phenylquinazolin-4(3H)-one] |  |  |  |  | > 0.25 |
